Assay results published in patent publication US9139557B2, “Carboxamide compounds and their use as calpain inhibitors” (Abbott GmbH & Co. KG, priority 2006, dated 2015).

Experiments:
Type in all cases: biochemical
cathepsin B = target: T1, cathepsin B (Homo sapiens, UniProt P07858); assay: Cathepsin B enzyme inhibition in vitro (kinetic fluorescence assay); conditions: Ki(cathepsin B)/Ki(calpain) ratio
T1 construct: cathepsin B—isolated from human liver; purchased Calbiochem 219362; host or cells: human liver (tissue isolate)
Procedure, shortened: (§1)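 Kinetic fluorescence (ex 390/em 460 nm), RT. Calpain-I: 20 nM erythrocyte-derived, 100 μM Suc-Leu-Tyr-AMC, imidazole/CaCl2, pH 7.3. Cathepsins, pH 6.0 MES/EDTA/cysteine: B 0.25 nM liver, 100 μM Z-Phe-Arg-AMC; L 1 nM liver, 2 μM Z-Phe-Arg-AMC; S 0.5 nM recombinant, 20 μM Z-Val-Val-Arg-AMC. Cheng-Prusoff Ki, mean of 2–4 curves.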

cathepsin S = target: T2, cathepsin S (Homo sapiens, UniProt P25774); assay: Cathepsin S enzyme inhibition in vitro (kinetic fluorescence assay); conditions: Ki(cathepsin S)/Ki(calpain) ratio
T2 construct: purchased Calbiochem 219343; host or cells: E. coli
Procedure, shortened: as §1

cathepsin K = target: T3, cathepsin K (Homo sapiens, UniProt P43235); assay: Cathepsin K enzyme inhibition in vitro (kinetic fluorescence assay); conditions: Ki(cathepsin K)/Ki(calpain) ratio
T3 construct: purchased Calbiochem 342001; host or cells: E. coli
T3 sequence (P43235 115-329): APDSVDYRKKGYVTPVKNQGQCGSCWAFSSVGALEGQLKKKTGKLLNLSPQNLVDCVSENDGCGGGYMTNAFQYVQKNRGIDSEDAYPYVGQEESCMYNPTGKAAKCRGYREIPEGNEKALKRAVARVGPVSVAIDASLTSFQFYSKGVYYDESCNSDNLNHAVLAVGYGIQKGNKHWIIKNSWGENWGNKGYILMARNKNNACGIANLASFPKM

cathepsin L = target: T4, cathepsin L (Homo sapiens, UniProt P07711); assay: Cathepsin L enzyme inhibition in vitro (kinetic fluorescence assay); conditions: Ki(cathepsin L)/Ki(calpain) ratio
T4 construct: cathepsin L—isolated from human liver; purchased Calbiochem 219402; host or cells: human liver (tissue isolate)
Procedure, shortened: as §1

T2 sequence (P25774 115-331): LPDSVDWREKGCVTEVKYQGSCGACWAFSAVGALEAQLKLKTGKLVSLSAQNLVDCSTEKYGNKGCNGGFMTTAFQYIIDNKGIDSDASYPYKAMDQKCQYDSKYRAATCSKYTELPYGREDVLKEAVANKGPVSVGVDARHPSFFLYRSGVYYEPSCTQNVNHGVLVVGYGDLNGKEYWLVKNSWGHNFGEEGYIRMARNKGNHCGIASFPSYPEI
T4 sequence (P07711 114-333): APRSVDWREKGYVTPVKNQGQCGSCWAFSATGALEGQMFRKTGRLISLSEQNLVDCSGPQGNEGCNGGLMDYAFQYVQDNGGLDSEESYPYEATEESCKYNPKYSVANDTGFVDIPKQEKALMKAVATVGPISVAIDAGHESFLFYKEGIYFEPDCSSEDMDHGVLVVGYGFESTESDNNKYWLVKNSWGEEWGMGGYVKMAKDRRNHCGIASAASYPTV

Row | Structure (SMILES) | Sel cat. B (cathepsin B) | Sel cat. S (cathepsin S) | Sel cat. K (cathepsin K) | Sel cat. L (cathepsin L)
1 | NC(=O)C(=O)C(Cc1ccccc1)NC(=O)c1cccnc1-n1ccc(-c2ccc3c(c2)OC(F)(F)O3)n1 (centres unmarked) [Example 118, N-[3-Amino-2,3-dioxo-1-(phenylmethyl)propyl]-2-[3-(2,2-difluoro-1,3-benzodioxol-5-yl)-1H-pyrazol-1-yl]pyridine-3-carboxamide] | ++ (++ means a Ki(cathepsin B)/Ki(calpain) ratio of ≧30) | ++ (++ means a Ki(cathepsin S)/Ki(calpain) ratio of ≧100) | + (+ means 10≦Ki(cathepsin K)/Ki(calpain)<30) | ++ (++ means a Ki(cathepsin L)/Ki(calpain) ratio of ≧50)
2 | NC(=O)C(=O)C(Cc1ccccc1)NC(=O)c1cccnc1-n1ccc(-c2c(F)cc(F)cc2F)n1 (centres unmarked) [Example 116, N-[3-Amino-2,3-dioxo-1-(phenylmethyl)propyl]-2-[3-(2,4,6-trifluorophenyl)-1H-pyrazol-1-yl]pyridine-3-carboxamide] | ++ (++ means a Ki(cathepsin B)/Ki(calpain) ratio of ≧30) | ++ (++ means a Ki(cathepsin S)/Ki(calpain) ratio of ≧100) | + (+ means 10≦Ki(cathepsin K)/Ki(calpain)<30) | ++ (++ means a Ki(cathepsin L)/Ki(calpain) ratio of ≧50)
3 | COc1ccc(CC(NC(=O)c2cccnc2-n2ccc(-c3ccccc3F)n2)C(=O)C(N)=O)cc1 (centres unmarked) [Example 92, N-(3-Amino-1-{[4-(methyloxy)phenyl]methyl}-2,3-dioxopropyl)-2-[3-(2-fluorophenyl)-1H-pyrazol-1-yl]pyridine-3-carboxamide] | ++ (++ means a Ki(cathepsin B)/Ki(calpain) ratio of ≧30) | ++ (++ means a Ki(cathepsin S)/Ki(calpain) ratio of ≧100) | + (+ means 10≦Ki(cathepsin K)/Ki(calpain)<30) | ++ (++ means a Ki(cathepsin L)/Ki(calpain) ratio of ≧50)
4 | NC(=O)C(=O)C(Cc1cccc(F)c1)NC(=O)c1cccnc1-n1ccc(-c2ccccc2OC(F)(F)F)n1 (centres unmarked) [Example 162, N-{3-Amino-1-[(3-fluorophenyl)methyl]-2,3-dioxopropyl}-2-(3-{2-[(trifluoromethyl)oxy]phenyl}-1H-pyrazol-1-yl)pyridine-3-carboxamide] | ++ (++ means a Ki(cathepsin B)/Ki(calpain) ratio of ≧30) | ++ (++ means a Ki(cathepsin S)/Ki(calpain) ratio of ≧100) | ++ (++ means a Ki(cathepsin K)/Ki(calpain) ratio of ≧30) | ++ (++ means a Ki(cathepsin L)/Ki(calpain) ratio of ≧50)
5 | NC(=O)C(=O)C(Cc1ccccc1)NC(=O)c1cccnc1-n1ccc(-c2cccc(OC(F)(F)F)c2)n1 (centres unmarked) [Example 168, N-[3-Amino-2,3-dioxo-1-(phenylmethyl)propyl]-2-(3-{3-[(trifluoromethyl)oxy]phenyl}-1H-pyrazol-1-yl)pyridine-3-carboxamide] | + (+ means 10≦Ki(cathepsin B)/Ki(calpain)<30) | ++ (++ means a Ki(cathepsin S)/Ki(calpain) ratio of ≧100) | + (+ means 10≦Ki(cathepsin K)/Ki(calpain)<30) | ++ (++ means a Ki(cathepsin L)/Ki(calpain) ratio of ≧50)
6 | NC(=O)C(=O)C(Cc1ccccc1)NC(=O)c1cccnc1-n1ccc(-c2ccc(C(F)(F)F)cc2)n1 (centres unmarked) [Example 60, N-(3-Amino-1-benzyl-2,3-dioxopropyl)-2-{3-[4-(trifluoromethyl)phenyl]-1H-pyrazol-1-yl}nicotinamide] | + (+ means 10≦Ki(cathepsin B)/Ki(calpain)<30) | + (+ means 50≦Ki(cathepsin S)/Ki(calpain)<100) | + (+ means 10≦Ki(cathepsin K)/Ki(calpain)<30) | ++ (++ means a Ki(cathepsin L)/Ki(calpain) ratio of ≧50)
7 | Cl.NC(=O)C(=O)C(Cc1cccnc1)NC(=O)c1cccnc1-n1ccc(-c2ccccc2)n1 (centres unmarked) [Example 88, N-[3-Amino-2,3-dioxo-1-(pyridin-3-ylmethyl)propyl]-2-(3-phenyl-1H-pyrazol-1-yl)pyridine-3-carboxamide hydrochloride] | + (+ means 10≦Ki(cathepsin B)/Ki(calpain)<30) | ++ (++ means a Ki(cathepsin S)/Ki(calpain) ratio of ≧100) | ++ (++ means a Ki(cathepsin K)/Ki(calpain) ratio of ≧30) | ++ (++ means a Ki(cathepsin L)/Ki(calpain) ratio of ≧50)
8 | NC(=O)C(=O)C(Cc1ccccc1)NC(=O)c1cccnc1-n1ccc(-c2c(F)ccc(Cl)c2Cl)n1 (centres unmarked) [Example 120, N-[3-Amino-2,3-dioxo-1-(phenylmethyl)propyl]-2-[3-(2,3-dichloro-6-fluorophenyl)-1H-pyrazol-1-yl]pyridine-3-carboxamide] | ++ (++ means a Ki(cathepsin B)/Ki(calpain) ratio of ≧30) | ++ (++ means a Ki(cathepsin S)/Ki(calpain) ratio of ≧100) | ++ (++ means a Ki(cathepsin K)/Ki(calpain) ratio of ≧30) | + (+ means 30≦Ki(cathepsin L)/Ki(calpain)<50)
9 | COc1ccc(CC(NC(=O)c2cccnc2-n2ccc(-c3ccc(F)cc3F)n2)C(=O)C(N)=O)cc1 (centres unmarked) [Example 97, N-(3-Amino-1-{[4-(methyloxy)phenyl]methyl}-2,3-dioxopropyl)-2-[3-(2,4-difluorophenyl)-1H-pyrazol-1-yl]pyridine-3-carboxamide] | ++ (++ means a Ki(cathepsin B)/Ki(calpain) ratio of ≧30) | ++ (++ means a Ki(cathepsin S)/Ki(calpain) ratio of ≧100) | + (+ means 10≦Ki(cathepsin K)/Ki(calpain)<30) | ++ (++ means a Ki(cathepsin L)/Ki(calpain) ratio of ≧50)
10 | COc1ccc(CC(NC(=O)c2cccnc2-n2ccc(-c3ccc(F)cc3Cl)n2)C(=O)C(N)=O)cc1 (centres unmarked) [Example 111, N-(3-Amino-1-{[4-(methyloxy)phenyl]methyl}-2,3-dioxopropyl)-2-[3-(2-chloro-4-fluorophenyl)-1H-pyrazol-1-yl]pyridine-3-carboxamide] | ++ (++ means a Ki(cathepsin B)/Ki(calpain) ratio of ≧30) | ++ (++ means a Ki(cathepsin S)/Ki(calpain) ratio of ≧100) | ++ (++ means a Ki(cathepsin K)/Ki(calpain) ratio of ≧30) | ++ (++ means a Ki(cathepsin L)/Ki(calpain) ratio of ≧50)
11 | CS(=O)(=O)Nc1cnc(-n2ccc(-c3ccccc3)n2)c(C(=O)NC(Cc2ccccc2)C(=O)C(N)=O)c1 (centres unmarked) [Example 158, N-[3-Amino-2,3-dioxo-1-(phenylmethyl)propyl]-5-[(methylsulfonyl)amino]-2-(3-phenyl-1H-pyrazol-1-yl)pyridine-3-carboxamide] | ++ (++ means a Ki(cathepsin B)/Ki(calpain) ratio of ≧30) | ++ (++ means a Ki(cathepsin S)/Ki(calpain) ratio of ≧100) | ++ (++ means a Ki(cathepsin K)/Ki(calpain) ratio of ≧30) | ++ (++ means a Ki(cathepsin L)/Ki(calpain) ratio of ≧50)
12 | COc1ccc(F)cc1-c1ccn(-c2ncccc2C(=O)NC(Cc2ccccc2)C(=O)C(N)=O)n1 (centres unmarked) [Example 130, N-[3-Amino-2,3-dioxo-1-(phenylmethyl)propyl]-2-{3-[5-fluoro-2-(methyloxy)phenyl]-1H-pyrazol-1-yl}pyridine-3-carboxamide] | ++ (++ means a Ki(cathepsin B)/Ki(calpain) ratio of ≧30) | ++ (++ means a Ki(cathepsin S)/Ki(calpain) ratio of ≧100) | ++ (++ means a Ki(cathepsin K)/Ki(calpain) ratio of ≧30) | ++ (++ means a Ki(cathepsin L)/Ki(calpain) ratio of ≧50)
13 | NC(=O)C(=O)C(Cc1ccccc1)NC(=O)c1cccnc1-n1ccc(-c2sccc2Cl)n1 (centres unmarked) [Example 109, N-[3-Amino-2,3-dioxo-1-(phenylmethyl)propyl]-2-[3-(3-chloro-2-thienyl)-1H-pyrazol-1-yl]pyridine-3-carboxamide] | ++ (++ means a Ki(cathepsin B)/Ki(calpain) ratio of ≧30) | ++ (++ means a Ki(cathepsin S)/Ki(calpain) ratio of ≧100) | ++ (++ means a Ki(cathepsin K)/Ki(calpain) ratio of ≧30) | ++ (++ means a Ki(cathepsin L)/Ki(calpain) ratio of ≧50)
14 | NC(=O)C(=O)C(Cc1ccc(OC(F)(F)F)cc1)NC(=O)c1cccnc1-n1ccc(-c2ccc(F)cc2)n1 (centres unmarked) [Example 132, N-[3-Amino-2,3-dioxo-1-({4-[(trifluoromethyl)oxy]phenyl}methyl)propyl]-2-[3-(4-fluorophenyl)-1H-pyrazol-1-yl]pyridine-3-carboxamide] | + (+ means 10≦Ki(cathepsin B)/Ki(calpain)<30) | ++ (++ means a Ki(cathepsin S)/Ki(calpain) ratio of ≧100) | ++ (++ means a Ki(cathepsin K)/Ki(calpain) ratio of ≧30) | ++ (++ means a Ki(cathepsin L)/Ki(calpain) ratio of ≧50)
